Measured values reported in ChEMBL document CHEMBL1141220, “A new class of HIV-1 protease inhibitors containing a tertiary alcohol in the transition-state mimicking scaffold” (J Med Chem, 2005).
pEC50, pKi: −log10 of the molar value.

Assays:
MT4 [1] = test: Antiviral activity against HIV1 infected MT4 cells by colorimetric XTT assay; format: functional, cell-based; conditions: Homo sapiens
[2] = target: Human immunodeficiency virus type 1 protease (Human immunodeficiency virus 1, UniProt Q72874); test: Inhibitory activity against HIV1 protease expressed in Escherichia coli in a fluorometric assay
MT4 [3] = test: Antiviral activity against mutant HIV1 (V32I, M46I, V82A) infected MT4 cells by colorimetric XTT assay; format: functional, cell-based
MT4 [4] = test: Antiviral activity against mutant HIV1 (V32I, M46I, A71V, V82A) infected MT4 cells by colorimetric XTT assay; format: functional, cell-based
[5] = Caco-2 cell membrane permeability; format: ADME, cell-based; conditions: human
[6] = Intrinsic clearance (CL) in human liver microsomes at 2 uM; format: ADME, Microsome

## COC(=O)N[C@H](C(=O)NN(Cc1ccccc1)C[C@@](O)(Cc1ccccc1)C(=O)N[C@H]1c2ccccc2C[C@H]1O)C(C)C
MT4 [1]
  pEC50: 5.32
[2]
  pKi: 8.05

## COC(=O)N[C@H](C(=O)NN(Cc1ccc(Br)cc1)C[C@@](O)(Cc1ccccc1)C(=O)N[C@H]1c2ccccc2C[C@H]1O)C(C)(C)C
MT4 [3]
  pEC50: 6.05
MT4 [4]
  pEC50: 6.10
MT4 [1]
  pEC50: 5.96
[5]
  Papp: 42 ×10⁻⁶ cm/s

## CC(C)[C@H](NC(=O)OCc1ccccc1)C(=O)NN(Cc1ccccc1)C[C@](O)(Cc1ccccc1)C(=O)N[C@H]1c2ccccc2C[C@H]1O
MT4 [1]
  pEC50: < 5.00
[2]
  pKi: 6.06

## COC(=O)N[C@H](C(=O)NN(Cc1ccccc1)C[C@](O)(Cc1ccccc1)C(=O)N[C@H]1c2ccccc2C[C@H]1O)C(C)(C)C
MT4 [1]
  pEC50: < 5.00

## CC(C)(C)[C@H](NS(C)(=O)=O)C(=O)NN(Cc1ccccc1)C[C@@](O)(Cc1ccccc1)C(=O)N[C@H]1c2ccccc2C[C@H]1O
MT4 [1]
  pEC50: < 5.00
[2]
  pKi: 7.20

## CC(C)[C@H](NC(=O)OCc1ccccc1)C(=O)NN(Cc1ccccc1)C[C@@](O)(Cc1ccccc1)C(=O)N[C@H]1c2ccccc2C[C@H]1O
MT4 [1]
  pEC50: < 5.00
[2]
  pKi: 7.64

## CC(C)(C)[C@H](NC(=O)NCc1ccccc1)C(=O)NN(Cc1ccccc1)C[C@@](O)(Cc1ccccc1)C(=O)N[C@H]1c2ccccc2C[C@H]1O
MT4 [1]
  pEC50: < 5.00
[2]
  pKi: 7.66

## CC(C)(C)[C@H](NC(=O)OCc1ccccc1)C(=O)NN(Cc1ccccc1)C[C@@](O)(Cc1ccccc1)C(=O)N[C@H]1c2ccccc2C[C@H]1O
MT4 [1]
  pEC50: < 5.00
[2]
  pKi: 7.74

## COC(=O)N[C@H](C(=O)NN(Cc1ccccc1)C[C@@](O)(Cc1ccccc1)C(=O)N[C@H]1c2ccccc2C[C@H]1O)C(C)(C)C
MT4 [3]
  pEC50: 5.70
MT4 [4]
  pEC50: 5.80
[6]
  microsomal CLint at 2 µM: 527 µL/min/mg
MT4 [1]
  pEC50: 5.72
[5]
  Papp: 35 ×10⁻⁶ cm/s
[2]
  pKi: 8.22

## CC(C)[C@H](NC(=O)OCc1ccccc1)C(=O)NN(Cc1ccc(Br)cc1)C[C@@](O)(Cc1ccccc1)C(=O)N[C@H]1c2ccccc2C[C@H]1O
MT4 [1]
  pEC50: < 5.00
[2]
  pKi: 7.77
